According to ChEMBL document CHEMBL5052840, “Pharmaceutical compounds and therapeutic methods” (2020):
Active and inactive are the calls of the source. No cut-off for these calls is given here.

Assays:
[1] = molecular target: T1, Polycomb complex protein BMI-1 (Homo sapiens) (UniProt P35226); experiment: Inhibition of BMI1 in human Glioblastoma cell 3D spheres at 7 to 10 nM assessed as reduction in BMI1 protein levels measured by Western blotting method; format: cell-based; settings: Glioblastoma cell line, dose 7-10 nM
T1 sequence (whole entry): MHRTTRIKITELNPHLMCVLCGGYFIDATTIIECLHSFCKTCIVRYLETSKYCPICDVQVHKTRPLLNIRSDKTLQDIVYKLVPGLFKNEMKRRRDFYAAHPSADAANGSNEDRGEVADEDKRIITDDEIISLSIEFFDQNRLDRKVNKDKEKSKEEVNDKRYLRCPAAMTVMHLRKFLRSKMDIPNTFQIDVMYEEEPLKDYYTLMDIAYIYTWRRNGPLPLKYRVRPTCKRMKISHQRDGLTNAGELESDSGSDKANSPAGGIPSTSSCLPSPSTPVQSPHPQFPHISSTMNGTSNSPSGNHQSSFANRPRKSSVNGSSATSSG

[2] = molecular target: T1, Polycomb complex protein BMI-1 (Homo sapiens); experiment: Inhibition of BMI1 in human Glioblastoma cell 3D spheres at 7 to 10 nM assessed as reduction in phospho-RB levels measured by Western blotting method; format: cell-based; settings: Glioblastoma cell line, dose 7-10 nM
[3] = molecular target: T1, Polycomb complex protein BMI-1 (Homo sapiens); experiment: Inhibition of BMI1 in human Glioblastoma cell 3D spheres at 7 to 10 nM assessed as reduction in STAT1 levels measured by Western blotting method; format: cell-based; settings: Glioblastoma cell line, dose 7-10 nM
[4] = Efflux ratio of apparent permeability across basolateral to apical membrane over apical to basolateral membrane in human Caco-2 cells measured by LC-MS analysis; format: ADME, cell-based
[5] = Plasma concentration in male C57BL/6 mouse at 10 mg/kg, ip administered as single dose measured at 0.08 hrs measured by LC/MS-MS analysis; format: ADME, organism-based
[6] = Plasma concentration in male C57BL/6 mouse at 10 mg/kg, ip administered as single dose measured at 0.35 hrs measured by LC/MS-MS analysis; format: ADME, organism-based
[7] = Plasma concentration in male C57BL/6 mouse at 10 mg/kg, ip administered as single dose measured at 1 hr measured by LC/MS-MS analysis; format: ADME, organism-based
[8] = Plasma concentration in male C57BL/6 mouse at 10 mg/kg, ip administered as single dose measured at 3 hrs measured by LC/MS-MS analysis; format: ADME, organism-based
[9] = Plasma concentration in male C57BL/6 mouse at 10 mg/kg, po administered as single dose measured at 1 hr measured by LC/MS-MS analysis; format: ADME, organism-based
[10] = Plasma concentration in male C57BL/6 mouse at 10 mg/kg, po administered as single dose measured at 3 hrs measured by LC/MS-MS analysis; format: ADME, organism-based
[11] = Plasma concentration in male C57BL/6 mouse at 10 mg/kg, po administered as single dose measured at 6 hrs measured by LC/MS-MS analysis; format: ADME, organism-based
[12] = Brain concentration in male C57BL/6 mouse at 10 mg/kg, ip administered as single dose measured at 1 hr measured by LC/MS-MS analysis; format: ADME, organism-based; settings: read-out: Drug uptake
[13] = Brain concentration in male C57BL/6 mouse at 10 mg/kg, ip administered as single dose measured at 6 hrs measured by LC/MS-MS analysis; format: ADME, organism-based; settings: read-out: Drug uptake
[14] = Brain concentration in male C57BL/6 mouse at 10 mg/kg, ip administered as single dose measured at 12 hrs measured by LC/MS-MS analysis; format: ADME, organism-based; settings: read-out: Drug uptake
[15] = Brain concentration in male C57BL/6 mouse at 10 mg/kg, ip administered as single dose measured at 24 hrs measured by LC/MS-MS analysis; format: ADME, organism-based; settings: read-out: Drug uptake
[16] = Brain concentration in male C57BL/6 mouse at 10 mg/kg, po administered as single dose measured at 3 hrs measured by LC/MS-MS analysis; format: ADME, organism-based; settings: read-out: Drug uptake
[17] = Brain concentration in male C57BL/6 mouse at 10 mg/kg, po administered as single dose measured at 6 hrs measured by LC/MS-MS analysis; format: ADME, organism-based; settings: read-out: Drug uptake
[18] = Brain concentration in male C57BL/6 mouse at 10 mg/kg, po administered as single dose measured at 12 hrs measured by LC/MS-MS analysis; format: ADME, organism-based; settings: read-out: Drug uptake
[19] = Ratio of drug level in male C57BL/6 mouse brain to plasma at 10 mg/kg, ip administered as single dose measured at 0.08 hrs measured by LC/MS-MS analysis; format: ADME, organism-based; settings: read-out: BPR
[20] = Ratio of drug level in male C57BL/6 mouse brain to plasma at 10 mg/kg, ip administered as single dose measured at 0.35 hrs measured by LC/MS-MS analysis; format: ADME, organism-based; settings: read-out: BPR
[21] = Ratio of drug level in male C57BL/6 mouse brain to plasma at 10 mg/kg, ip administered as single dose measured at 3 hrs measured by LC/MS-MS analysis; format: ADME, organism-based; settings: read-out: BPR
[22] = Ratio of drug level in male C57BL/6 mouse brain to plasma at 10 mg/kg, po administered as single dose measured at 0.08 hrs measured by LC/MS-MS analysis; format: ADME, organism-based; settings: read-out: BPR
[23] = Ratio of drug level in male C57BL/6 mouse brain to plasma at 10 mg/kg, po administered as single dose measured at 0.35 hrs measured by LC/MS-MS analysis; format: ADME, organism-based; settings: read-out: BPR
[24] = Plasma concentration in male C57BL/6 mouse at 10 mg/kg, iv administered as single dose measured at 0.08 hrs measured by LC/MS-MS analysis; format: ADME, organism-based
[25] = Plasma concentration in male C57BL/6 mouse at 10 mg/kg, iv administered as single dose measured at 0.35 hrs measured by LC/MS-MS analysis; format: ADME, organism-based
[26] = Plasma concentration in male C57BL/6 mouse at 10 mg/kg, iv administered as single dose measured at 1 hr measured by LC/MS-MS analysis; format: ADME, organism-based
[27] = Plasma concentration in male C57BL/6 mouse at 10 mg/kg, iv administered as single dose measured at 3 hrs measured by LC/MS-MS analysis; format: ADME, organism-based
[28] = Brain concentration in male C57BL/6 mouse at 10 mg/kg, iv administered as single dose measured at 0.08 hrs measured by LC/MS-MS analysis; format: ADME, organism-based; settings: read-out: Drug uptake
[29] = Brain concentration in male C57BL/6 mouse at 10 mg/kg, iv administered as single dose measured at 0.35 hrs measured by LC/MS-MS analysis; format: ADME, organism-based; settings: read-out: Drug uptake
[30] = Brain concentration in male C57BL/6 mouse at 10 mg/kg, iv administered as single dose measured at 1 hr measured by LC/MS-MS analysis; format: ADME, organism-based; settings: read-out: Drug uptake
[31] = Ratio of drug level in male C57BL/6 mouse brain to plasma at 10 mg/kg, iv administered as single dose measured at 0.35 hrs measured by LC/MS-MS analysis; format: ADME, organism-based; settings: read-out: BPR
[32] = Ratio of drug level in male C57BL/6 mouse brain to plasma at 10 mg/kg, iv administered as single dose measured at 3 hrs measured by LC/MS-MS analysis; format: ADME, organism-based; settings: read-out: BPR
[33] = Ratio of drug level in male C57BL/6 mouse brain to plasma at 10 mg/kg, iv administered as single dose measured at 6 hrs measured by LC/MS-MS analysis; format: ADME, organism-based; settings: read-out: BPR

Cc1nc2ccccn2c1-c1csc(Nc2ccc3c(c2)OC(F)(F)O3)n1.Cl
inhibition [1]: Active | inhibition [2]: Active | inhibition [3]: Active | Ratio [4]: 0.9 | concentration at 0.08 h [5]: 713 ng/mL | concentration at 0.35 h [6]: 426 ng/mL | concentration at 1 h [7]: 79.1 ng/mL | concentration at 3 h [8]: 1.43 ng/mL | concentration at 1 h [9]: 29.3 ng/mL | concentration at 3 h [10]: 3.35 ng/mL | concentration at 6 h [11]: 2.5 ng/mL | concentration at 1 h [12]: 159 ng/g | concentration at 6 h [13]: 680 ng/g | concentration at 12 h [14]: 159 ng/g | concentration at 24 h [15]: 6.21 ng/g | concentration at 3 h [16]: 5.78 ng/g | concentration at 6 h [17]: 4.52 ng/g | concentration at 12 h [18]: 3.9 ng/g | Kp at 0.08 h [19]: 1.05 | Kp at 0.35 h [20]: 0.96 | Kp at 3 h [21]: 1.6 | Kp at 0.08 h [22]: 0.78 | Kp at 0.35 h [23]: 1.6 | concentration at 0.08 h [24]: 1580 ng/mL | concentration at 0.35 h [25]: 535 ng/mL | concentration at 1 h [26]: 80.7 ng/mL | concentration at 3 h [27]: 5.64 ng/mL | concentration at 0.08 h [28]: 1660 ng/g | concentration at 0.35 h [29]: 514 ng/g | concentration at 1 h [30]: 225 ng/g | Kp at 0.35 h [31]: 1.83 | Kp at 3 h [32]: 1.73 | Kp at 6 h [33]: 1.81
